Assay results from patent US20070166547A1, “Use of a layer consisting of hydrophobic linear, or two-dimensional polycyclic aromatics as a barrier layer or an encapsulation and electric components constructed with a layer of this type and comprising organic polymers” (priority 2003, published 2007).

What was measured:
plasma hemostasis = assay: Partial activated thromboplastin time (PATT) after intravenous administration; type: in vivo, rabbit
Method: The investigations were performed on 72 rabbits of the “Chinchilla” breed with a mass of 2.5±0.3 kg, who were administered which solutions of compounds 2, 15, 21, 37 in doses of 15, 30 and 60 mg/kg intravenously. The experiments included the thrombin-test (series No. 7300) and the coagulability-test (series No. 5000) purchased from the scientific-and-production association (SPA) “Renam”, thromboplastin (series No. 240600) and calcium chloride purchased from the SPA “MedioLab”
The static parameters of the blood and plasma coagulation (partial activated thromboplastin time, thrombin time, maximum coagulation activity (test for auto coagulation) were determined using the Behnk Electronic coagulometer (Germany). The operating principle of this instrument is based on the fact that the formed blood clot breaks the contacts of the pulse counter in the flask-pin circuit, said pin permanently oscillating in a vertical plane. The moment of formation of the clot is registered by stopping the stop watch hand.
The measurements were effected at a constant temperature of 37° C. maintained by a temperature control unit.
Compounds 2, 15, 21, 37 according to the invention at a concentration of 15, 30 and 60 mg/kg were introduced to the above experimental animals intravenously, and their blood samples were taken off 15, 30, 60 and 120 minutes after the administration.
The blood plasma samples deprived of thrombocytes obtained as described above in an amount of 0.1 ml were put in a coagulometer flask and heated for 1 minute at 37° C., then 0.1 ml of 0.277% solution of calcium chloride was added and the blood clotting time was registered. The coagulation time T in seconds of the control plasma and plasma obtained after intravenous administration after 15, 30, 60 and 120 minutes were compared.

[1] = test system: indicator enzymes in blood plasma; assay: Morphine abstinence model: indicator enzymes AST, ALT, γ-GTP in blood plasma; type: in vivo, rats Wistar
Method: The experiments were carried out on rats in series of 7 animals on each compound according to the invention. Non-morphinized animal with not administered with compounds according to the invention were used as a control group. […] Then the rats were decapitated, the blood from somnolent arteries was collected in test tubes with solution EDTA as an anticoagulant, centrifuged at 1500 g for 15 minutes at 4° C.
To estimate possible hepatoprotective action of the compounds according to the invention under conditions of development of an oxidizing stress in the liver cells, effect of these compounds on the most important biochemical blood indexes, in particular, on the content in blood plasma of indicator enzyme of aspartateaminotransferase (AST), alanineaminotransferase (ALT), γ-glutamiletranspeptidase (γ-GTP) was investigated. The content of enzymes was estimated by their catalyzing activity in blood plasma.
The activity of AST, ALT and γ-GTP was determined by means of diagnostic sets DiaSys, Germany.

[2] = test system: adenosine-sensitive receptors of thrombocytes; assay: ADP-induced aggregation of thrombocytes in vitro (Born method); type: cell-based, rabbit; conditions: 3 min incubation, ADP 10^−5 M
Method in brief: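 Platelet-rich plasma from fasted male Chinchilla rabbits (citrated, […]), stirred at 37° C. ADP at 10^−5 M final was added, then compounds at 10^−3 to 10^−7 M for 3 min. Read-out was maximum aggregation amplitude as % fall in optical density, with platelet-poor plasma as 0%.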

thymus [3] = assay: Morphine abstinence model: thymus condition; type: in vivo, rats; conditions: compound alone
thymus [4] = assay: Morphine abstinence model: thymus condition; type: in vivo, rats; conditions: morphinized rats then compound
Method: The effect of the compounds according to the invention on the condition of the thymus of the rats was also investigated: a control group, an experimental group of morphinized animals and an experimental group of animals were first morphinized and then injected with the compounds according to the invention. The experiment was carried out similarly to that described above.

[5] = compound alone 20.0 mg/kg intramuscularly
[6] = morphinized rats then compound 20.0 mg/kg intramuscularly

Q: `O=c1[nH][nH]c(=O)c2c(Br)ncnc12.[K]` [Compound 37, potassium salt of 4-bromine-pyrimido[4,5-D]-6H-pyridazine-5,8-dione] was tested. Which “T, s after 15 minutes (PATT)” value (plasma hemostasis; dose 15.0 mg/kg intravenously) did it give?
A: 37.0 ± 0.2 s

Q: What about the “T, s after 30 minutes (PATT)” value (plasma hemostasis; dose 15.0 mg/kg intravenously) of the same compound?
A: 37.1 ± 0.1 s

Q: What about the “T, s after 60 minutes (PATT)” value (plasma hemostasis; dose 15.0 mg/kg intravenously) of the same compound?
A: 37.0 ± 0.2 s

Q: What about the “T, s after 120 minutes (PATT)” value (plasma hemostasis; dose 15.0 mg/kg intravenously) of the same compound?
A: 36.9 ± 0.1 s

Q: And the “T, s after 15 minutes (PATT)” value (plasma hemostasis; dose 30.0 mg/kg intravenously)?
A: 33.1 ± 0.1 s

Q: What about the “T, s after 30 minutes (PATT)” value (plasma hemostasis; dose 30.0 mg/kg intravenously) of the same compound?
A: 33.3 ± 0.1 s

Q: What about the “T, s after 60 minutes (PATT)” value (plasma hemostasis; dose 30.0 mg/kg intravenously) of the same compound?
A: 33.3 ± 0.2 s

Q: And the “T, s after 120 minutes (PATT)” value (plasma hemostasis; dose 30.0 mg/kg intravenously)?
A: 33.0 ± 0.4 s

Q: And the “T, s after 15 minutes (PATT)” value (plasma hemostasis; dose 60.0 mg/kg intravenously)?
A: 32.5 ± 0.1 s

Q: And the “T, s after 30 minutes (PATT)” value (plasma hemostasis; dose 60.0 mg/kg intravenously)?
A: 32.3 ± 0.2 s

Q: And the “T, s after 60 minutes (PATT)” value (plasma hemostasis; dose 60.0 mg/kg intravenously)?
A: 32.4 ± 0.1 s

Q: What about the “T, s after 120 minutes (PATT)” value (plasma hemostasis; dose 60.0 mg/kg intravenously) of the same compound?
A: 32.6 ± 0.3 s

Q: And the “effect on the PATT (overall)” value (plasma hemostasis; doses 15.0, 30.0, 60.0 mg/kg)?
A: do not affect the PATT

Q: And the “ALT, Ci, mE/l, Control + compound” value [1, 5]?
A: 113.84 ± 2.0 mE/l

Q: What about the “AST, Ci, mE/l, Control + compound” value [1, 5] of the same compound?
A: 174.82 ± 4.91 mE/l

Q: And the “γ-GTP, Ci, mE/l, Control + compound” value [1, 5]?
A: 8.14 ± 2.64 mE/l

Q: What about the “ALT, Ci, mE/l, control + Morphine + Compound” value [1, 6] of the same compound?
A: 120.84 ± 5.20 mE/l

Q: And the “AST, Ci, mE/l, control + Morphine + Compound” value [1, 6]?
A: 193.58 ± 14.18 mE/l

Q: What about the “γ-GTP, Ci, mE/l, control + Morphine + Compound” value [1, 6] of the same compound?
A: 10.32 ± 2.67 mE/l

Q: What about the “MA - fall of optical density of plasma, % to the standard” value (“MA - fall … % to the standard” below) ([2]; 10^−3 M) of the same compound?
A: 46.9 ± 2.7 %

Q: And the “MA - fall … % to the standard” value ([2]; 10^−4 M)?
A: 47.1 ± 2.0 %

Q: And the “MA - fall … % to the standard” value ([2]; 10^−5 M)?
A: 40.6 ± 1.7 %

Q: And the “MA - drop of optical density, % compared to control” value ([2]; 10^−6 M)?
A: 48.1 ± 2.9%

Q: And the “MA - drop of optical density, % compared to control” value ([2]; 10^−7 M)?
A: 50.1 ± 1.0%

Q: And the “Nitrites, thymus Supernatant, Administration of compounds” value (thymus [3])?
A: 0.410 ± 0.01 nmol/mg of protein

Q: What about the “Thymus mass, Administration of compounds” value (thymus [3]) of the same compound?
A: 263 ± 21 mg

Q: And the “Nitrites, thymus Supernatant, Administration of morphine and compound” value (thymus [4])?
A: 0.387 ± 0.01 nmol/mg of protein

Q: And the “Thymus mass, Administration of morphine and compound” value (thymus [4])?
A: 228 ± 15 mg
